# Columns and labels:
# [1] = tested on: Caco-2 cell monolayers; test: Caco-2 cell permeability; assay type: in vitro ADME, human; conditions: polarized Caco-2 cell monolayers
# [2] = tested on: human induced pluripotent stem cell (iPSC)-derived cardiomyocytes, iCell Cardiomyocytes2; test: Cardiac safety assay, Ca2+ oscillation in iPSC-derived cardiomyocytes; conditions: 60 minutes, n = 3
Caco-2 cell permeability Class [1],Structure (SMILES),Effect on pulse waveforms and beat intervals (Ca2+ oscillation) ([2]; 0.2 μM),Effect on pulse waveforms and beat intervals (Ca2+ oscillation) ([2]; 2 μM),Effect on pulse waveforms and beat intervals (Ca2+ oscillation) ([2]; 20 μM)
High,O=C(C1CCCCC1)N1CON2CCc3ccccc3C2C1 (centres unmarked) [Compound 4],did not affect the pulse waveforms and beat intervals,"the pulse waveforms remained unchanged, but a slight shortening of beat intervals was observed for up to 30 minutes post-addition","did not alter the pulse waveforms, but resulted in shortened beat intervals"
High,"O=C(C1CCCCC1)N1CC(=O)N2CCc3ccccc3C2C1 (centres unmarked) [PZQ, praziquantel, reference compound]",–,–,–

# From PMC11467761 (RSC Medicinal Chemistry, 2024)
